Data: patent US20230056135A1, “MONOMER AND MULTIMERIC ANTI-HBV AGENTS” (priority 2018, published 2023)
Read-outs that look alike come from different tables or passages of the source.

Legend:
human PBM = assay: Cellular toxicity assay in human PBM cells; type: cell-based; conditions: human PBM cells; read-out: Cytotoxicity; CC50 (μM) PBM
Experimental: (§1) The toxicity of the compounds was assessed in Vero, human PBM, CEM (human lymphoblastoid), MT-2, and HepG2 cells, as described previously (see Schinazi R. F., Sommadossi J.-P., Saalmann V., Cannon D. L., Xie M.-Y., Hart G. C., Smith G. A. & Hahn E. F. Antimicrob. Agents Chemother. 1990, 34, 1061-67). Cycloheximide was included as positive cytotoxic control, and untreated cells exposed to solvent were included as negative controls. The cytotoxicity IC50 was obtained from the concentration-response curve using the median effective method described previously (see Chou T.-C. & Talalay P. Adv. Enzyme Regul. 1984, 22, 27-55; Belen'kii M. S. & Schinazi R. F. Antiviral Res. 1994, 25, 1-11).

HepG2 cells = assay: Cellular toxicity assay in HepG2 cells; type: cell-based; conditions: HepG2 cells; read-out: Cytotoxicity; CC50 (μM) HepG2
Experimental: as §1

wild type HBV = assay: Anti-HBV assay in AD-38 cell line (HBV in culture supernatant); type: cell-based; conditions: for EC50: read-out: Anti-HBV activity EC50; for EC90: read-out: Anti-HBV activity EC90
Experimental: The anti-HBV activity of the compounds was determined by treating the AD-38 cell line carrying wild type HBV under the control of tetracycline (see Ladner S. K., Otto M. J., Barker C. S., Zaifert K., Wang G. H., Guo J. T., Seeger C. & King R. W. Antimicrob. Agents Chemother. 1997, 41, 1715-20). Removal of tetracycline from the medium [Tet (−)] results in the production of HBV. The levels of HBV in the culture supernatant fluids from cells treated with the compounds were compared with that of the untreated controls. Control cultures with tetracycline [Tet (+)] were also maintained to determine the basal levels of HBV expression. 3TC was included as positive control.
The median effective concentrations (EC50) ranges of several of the compounds described herein against HBV are shown in Table 3: […]

[1] = Cellular toxicity assay in human PBM cells; type: cell-based
Experimental: as §1

[2] = Cellular toxicity assay in CEM cells; type: cell-based, human; conditions: human
Experimental: as §1

[3] = Cellular toxicity assay in Vero cells; type: cell-based; conditions: African green monkey
Experimental: as §1

[4] = Cellular toxicity assay in HepG2 cells; type: cell-based; conditions: human
Experimental: as §1

[5] = human, human PBM cells, read-out: Cytotoxicity, CC50 (μM) PBM
[6] = CEM lymphoblastoid cells, CEM cells, read-out: Cytotoxicity, CC50 (μM) CEM
[7] = Vero cells, read-out: Cytotoxicity, CC50 (μM) VERO
[8] = HepG2 cells, read-out: Cytotoxicity, CC50 (μM) HepG2
[9] = Hepatitis B virus, AD-38 cell line, Tet (-)

Compound | CC50 [1, 5] | CC50 [2, 6] | CC50 [3, 7] | CC50 [4, 8] | EC50 (wild type HBV; [9]) | EC90 (wild type HBV; [9]) | further results
Cc1c(C(=O)C(=O)NCc2cn(CCOCCOCCOCC(CO)COCCOCCOCCn3cc(CNC(=O)C(=O)c4c(C)c(C(=O)Nc5ccc(F)c(F)c5)n(C)c4C)nn3)nn2)c(C)n(C)c1C(=O)Nc1ccc(F)c(F)c1 [Compound 101, 4,4′-(2,2′-((((11-(Hydroxymethyl)-3,6,9,13,16,19-hexaoxahenicosane-1,21-diyl)bis(1H-1,2,3-triazole-1,4-diyl))bis(methylene))bis(azanediyl))bis(2-oxoacetyl))bis(N-(3,4-difluorophenyl)-1,3,5-trimethyl-1H-pyrrole-2-carboxamide)] |  |  |  |  |  |  | CC50 (human PBM): > 100 µM; CC50 (HepG2 cells): > 100 µM; EC50 (wild type HBV; AD-38 cell line, Tet (-)): 10 to 100 nM
Cc1c(C(=O)C(=O)NCCCCCCCCO)c(C)n(C)c1C(=O)Nc1ccc(F)c(F)c1 [Compound 60, N-(3,4-Difluorophenyl)-4-(2-(8-hydroxyoctylamino)-2-oxoacetyl)-1,3,5-trimethyl-1H-pyrrole-2-carboxamide] | 36 µM | 4 µM | 14 µM | 63 µM | 10 to 100 nM | 100 to 1000 nM | 
CCOC(=O)C1=C(CNCc2cn(CCCCCCCCn3cc(CNCC4=C(C(=O)OCC)C(c5ccc(F)cc5Br)N=C(c5nccs5)N4)nn3)nn2)NC(c2nccs2)=NC1c1ccc(F)cc1Br (stereo not drawn) [Compound 17c, Diethyl 6,6′-((((octane-1,8-diylbis(1H-1,2,3-triazole-1,4-diyl))bis(methylene))bis-(azanediyl))bis(methylene))bis(4-(2-bromo-4-fluorophenyl)-2-(thiazol-2-yl)-1,4-dihydropyrimidine-5-carboxylate)] | 11 µM | 7.1 µM | > 100 µM | 38.5 µM | 1000 to 10000 nM | 1000 to 10000 nM | 
Fc1ccc(C2N=C(c3nccs3)NC(CN3CCOCC3)=C2C#CC2CC2)c(Br)c1 (stereo not drawn) [Compound 17, 4-((6-(2-Bromo-4-fluorophenyl)-5-(cyclopropylethynyl)-2-(thiazol-2-yl)-3,6-dihydropyrimidin-4-yl)methyl)morpholine] | 19 µM | 17 µM | 23 µM | 81 µM | 10 to 100 nM | 100 to 1000 nM | 
Cc1c(C(=O)C(=O)NCCCB2OC3CC4CC(C4(C)C)C3(C)O2)c(C)n(C)c1C(=O)Nc1ccc(F)c(F)c1 (stereo not drawn) [Compound 62, N-(3,4-difluorophenyl)-1,3,5-trimethyl-4-(2-oxo-2-((3-(3a,5,5-trimethylhexahydro-4,6-methanobenzo[d][1,3,2]dioxaborol-2-yl)propyl)amino)acetyl)-1H-pyrrole-2-carboxamide] | 13 µM | 4 µM | 7 µM | 6 µM | 10 to 100 nM | 10 to 100 nM | 
Cc1c(C(=O)C(=O)NCCCN(CCCNC(=O)C(=O)c2c(C)c(C(=O)Nc3ccc(F)c(F)c3)n(C)c2C)CCCNC(=O)C(=O)c2c(C)c(C(=O)Nc3ccc(F)c(F)c3)n(C)c2C)c(C)n(C)c1C(=O)Nc1ccc(F)c(F)c1 [Compound 16a, 4,4′,4″-(2,2′,2″-((Nitrilotris(propane-3,1-diyl))tris(azanediyl))tris(2-oxoacetyl))tris(N-(3,4-difluorophenyl)-1,3,5-trimethyl-1H-pyrrole-2-carboxamide)] | > 100 µM | > 100 µM | 9 µM | > 100 µM | 100 to 1000 nM | 1000 to 10000 nM | 
O=C(Nc1ccc(F)c(Cl)c1)N1[C@@H]2CC[C@H]1c1c(-c3cscn3)n[nH]c1C2 [Compound 33, (4S,7R)—N-(3-Chloro-4-fluorophenyl)-3-(thiazol-4-yl)-1,4,5,6,7,8-hexahydro-4,7-epiminocyclo hepta[c]pyrazole-9-carboxamide] |  |  |  |  | 100 to 1000 nM | 1000 to 10000 nM | CC50 ([1]; human): 32 µM; CC50 [2]: 32 µM; CC50 [3]: 61 µM; CC50 [4]: 19 µM
Fc1ccc(C2N=C(c3ccccn3)NC(CN3CCOCC3)=C2C#CC2CC2)c(Cl)c1 (stereo not drawn) [Compound 8, 4-((6-(2-Chloro-4-fluorophenyl)-5-(cyclopropylethynyl)-2-(pyridin-2-yl)-3,6-dihydropyrimidin-4-yl)methyl)morpholine] | 62 µM | 20 µM | 49 µM | 36 µM | 100 to 1000 nM | 100 to 1000 nM | 
CCOC(=O)C1=C(CNCc2cn(CCCCCCCCCCCCn3cc(CNC(=O)C(=O)c4c(C)c(C(=O)Nc5ccc(F)c(F)c5)n(C)c4C)nn3)nn2)NC(c2nccs2)=NC1c1ccc(F)cc1Br (stereo not drawn) [Compound 23, Ethyl 4-(2-bromo-4-fluorophenyl)-6-((((1-(12-(4-((2-(5-((3,4-difluorophenyl)-carbamoyl)-1,2,4-trimethyl-1H-pyrrol-3-yl)-2-oxoacetamido)methyl)-1H-1,2,3-triazol-1-yl)dodecyl)-1H-1,2,3-triazol-4-yl)methyl)amino)methyl)-2-(thiazol-2-yl)-1,4-dihydropyrimidine-5-carboxylate] | > 100 µM | 14 µM | > 100 µM | 63 µM | 10 to 100 nM | 100 to 1000 nM | 
CCOC(=O)C1=C(CNCc2cn(CCOCCOCCOCCOCCOCCn3cc(CNC(=O)C(=O)c4c(C)c(C(=O)Nc5ccc(F)c(F)c5)n(C)c4C)nn3)nn2)NC(c2nccs2)=NC1c1ccc(F)cc1Br (stereo not drawn) [Compound 50, Ethyl 4-(2-bromo-4-fluorophenyl)-6-((((1-(17-(4-((2-(5-((3,4-difluorophenyl)carbamoyl)-1,2,4-trimethyl-1H-pyrrol-3-yl)-2-oxoacetamido)methyl)-1H-1,2,3-triazol-1-yl)-3,6,9,12,15-pentaoxaheptadecyl)-1H-1,2,3-triazol-4-yl)methyl)amino)methyl)-2-(thiazol-2-yl)-1,4-dihydropyrimidine-5-carboxylate] | 99 µM | 27 µM | > 100 µM | > 100 µM | 100 to 1000 nM | 1000 to 10000 nM | 
Cc1c(C(=O)C(=O)NCCCCO[P@@](=O)(N[C@@H](C)C(=O)OC(C)C)Oc2ccccc2)c(C)n(C)c1C(=O)Nc1ccc(F)c(F)c1 [Compound 58, Isopropyl ((S)-(4-(2-(5-((3,4-difluorophenyl)carbamoyl)-1,2,4-trimethyl-1H-pyrrol-3-yl)-2-oxoacetamido)butoxy)(phenoxy)phosphoryl)-L-alaninate] |  |  | 12 µM | 29 µM |  |  | CC50 ([1]; human PBM cells, read-out: Cytotoxicity, CC50 (μM) PBM): 7 µM; CC50 ([2]; CEM cells, read-out: Cytotoxicity, CC50 (μM) CEM): 10 µM; EC50 (wild type HBV; Hepatitis B virus): 100 to 1000 nM; EC90 (wild type HBV; Hepatitis B virus): 1000 to 10000 nM
O=S(=O)(NC1CC2=C(C#CC3CC3)C(c3ccc(F)cc3Cl)N=C(c3nccs3)N2C1)C1CC1 (stereo not drawn) [Compound 45, N-(3-(2-Chloro-4-fluorophenyl)-4-(cyclopropylethynyl)-1-(thiazol-2-yl)-3,5,6,7-tetrahydro-pyrrolo[1,2-c]pyrimidin-6-yl)cyclopropanesulfonamide] | 75 µM | 24 µM | > 100 µM | > 100 µM | 10 to 100 nM | 100 to 1000 nM | 
Cc1c(C(=O)C(=O)NCCCB(O)O)c(C)n(C)c1C(=O)Nc1ccc(F)c(F)c1 [Compound 64, (3-(2-(5-((3,4-Difluorophenyl)carbamoyl)-1,2,4-trimethyl-1H-pyrrol-3-yl)-2-oxoacetamido)propyl)boronic acid] | 62 µM | 26 µM | 76 µM | 98 µM | 10 to 100 nM | 10 to 100 nM | 
